{"source": "patent US10183941B2", "about": "“Pyrimidine or pyridopyridone compound and application thereof” (GUANGZHOU BEBETTER MEDICINE TECHNOLOGY CO., LTD., priority 2015, dated 2019)", "key": {"[1]": {"biological_target": "T1, CDK6 (GST-CDK6(1-326end)) (Homo sapiens, UniProt Q00534)", "T1 construct": "GST-CDK6(1-326end); purchased Carna 04-107", "experiment": "CDK6 activity inhibition experiment (Caliper mobility shift assay)", "type": "biochemical", "details": "enzyme activity inhibition; read-out: CDK6 IC50 class", "procedure": "The activity of CDK6 protein kinase was measured using Caliper mobility shift assay (see J. Biomol Screen 14:31, 2009). […] 10 μl of the 2.5 times diluted CDK6 enzyme solution (GST-CDK6(1-326end); Carna, Cat. No 04-107) was added and then incubated at room temperature for 10 minutes, then 10 μl of the 2.5 times diluted substrate solution Peptide FAM-P8 (GL Biochem, Cat. No. 112396) was added. After being incubated at 28° C. for 40 minutes, 25 μl of stop solution was added to stop the reaction. Conversion rate data was read from Caliper EZ Reader II (Caliper Life Sciences). The conversion rate data was converted into inhibition rate data. […] Conversion rate data was converted into inhibition rate data according to the method described above. Inhibition rate %=(max−conversion rate)/(max−min)×100."}, "ZR-75-1": {"tested_on": "ZR-75-1", "experiment": "Tumor cell proliferation inhibition (CellTiter-Glo), ZR-75-1", "type": "cell-based", "details": "Homo sapiens, 72 hours, 10% fetal bovine serum, read-out: ZR-75-1 IC50 class", "procedure": "The content of adenosine triphosphate (ATP) was determined using the CellTiter-Glo Luminescent Cell Viability Assay Kit (Promega, Madison, Wis.) to evaluate cell viability. Tumor cell lines (SW620, ZR-75-1, MDA-MB-231) were purchased from the Cell Resource Center of IBS, Fudan University, Shanghai and the American Type Culture Collection (ATCC). The cell density was determined using Scepter automated cell counter (Millipore # PHCC00000) after the cells were digested with pancreatin in cell culture dishes and resuspended in DPBS medium. The cells were diluted to a solution of 44,000 cells per ml. The cell solution of which density was adjusted was added into the cell assay plate at 90 microliters per well. The well plate was incubated in an incubator with 5% CO2 at 37° C. for 24 hours and then added with test compounds with different concentrations. The cells were incubated with the compounds in the presence of 10% fetal bovine serum for 72 hours. ATP content was assayed using the CellTiter-Glo® Luminescent Cell Viability Assay kit (see instructions of manufacturer) to assess cell growth inhibition. Briefly, 30 μl of CellTiter-Glo® reagent was added to each well, rocked for 10 minutes to induce cell lysis, and […] were detected and recorded with Fluoroskan Ascent FL (Thermo). The maximum signal value was obtained from the cells treated with dimethyl sulfoxide for 72 hours. The minimum signal value was obtained from the separate culture medium (cell number was zero). Inhibition rate %=(maximum signal value−compound signal value)/(maximum signal value−minimum signal value)×100. Data was processed using GraphPad Prism V5.0 (GraphPad Software, San Diego, Calif.) software. IC50 values were calculated by fitting S-shaped dose-response curves."}, "[2]": {"tested_on": "MDA-MB-231 breast cancer cells", "experiment": "Cell cycle inhibition experiment (PI staining, flow cytometry)", "type": "cell-based", "details": "Homo sapiens, MDA-MB-231 cells, 24 h", "source_text": "The cell cycle and apoptosis assay kit (Beyotime, C1052) used in this experiment is an assay kit for analyzing the cell cycle and apoptosis using the classic method of Propidium staining (PI staining). Propidium (PI) is a double-stranded DNA fluorescent dye. The combination of propidium and double-stranded DNA can produce fluorescence, and fluorescence intensity is proportional to the amount of double-stranded DNA. After DNA in cells is stained with propidium, the DNA content of the cells can be measured by flow cytometry, and then the cell cycle and apoptosis can be analyzed according to the distribution of DNA content.\nMDA-MB-231 cells were seeded into a 6-well plate at 3×10^5 per well and cultured for 24 hours.\nIn tumor cell cycle, the binding of CDK4 and CDK6 to cyclin D promotes G1 phase into S phase. CDK4/6 inhibitor selectively arrests the G1 phase of tumor cells into S phase. The detection results of the cell cycle of MDA-MB-231 breast cancer cells by flow cytometry indicate that the CDK4/6 inhibitor compounds provided by the present disclosure stop the growth of G1 phase cells and reduce S phase cells in a concentration-dependent manner, as shown in the following table."}, "[3]": {"tested_on": "phosphorylation of Rb at Ser780 in MDA-MB-231 breast cancer cells", "experiment": "Western Blot experiment, Rb phosphorylation", "type": "cell-based", "details": "MDA-MB-231 cells, 16 hours incubation, FIG. 1", "procedure": "MDA-MB-231 cells were grown in monolayer culture. […] The protein concentration was determined by the Branfor method. After being added with a loading buffer (Beyotime, # P0015L), the supernatant was boiled at 100° C. for 8 min, and the protein was separated by 8%-10% SDS-PAGE electrophoresis and then transferred to the PVDF membrane, and the membrane was blocked with 5% skimmed milk powder for 45 min, and then the cells were incubated overnight at 4° C. with primary antibody β-actin (CST, #4970), Rb (D20) Rabbit mAb (CST, #9313), Phospho-Rb(Ser780)(D59B7) Rabbit mAb (CST, #8180), and then the membrane was washed with TBST solution for 3×10 min. The cells were incubated in the dark at room temperature for 2 h with the fluorescent secondary antibody IRDye@680CW Goat (polyclonal) Anti-Rabbit 1gG (H+L), Highly Cross Adsorbed (LI-COR, #926-68071), and then the membrane was washed under the same condition above. Finally, the membrane was detected and imaged on a LI-COR Odyssey Infrared Fluorescence Scanning System, and the results are shown in FIG. 1.\nCDK4/6 can make Rb protein lose the arrest on cell cycle by phosphorylating the tumor suppressor protein Rb protein. CDK4/6 inhibitor can prevent the inactivation of tumor suppressor protein Rb and thereby restore the arrest of Rb on cell cycle."}, "[4]": {"experiment": "Pharmacokinetic (PK) experiment in rats", "type": "in vivo", "details": "male, SD, plasma, po, rat, intragastric 20 mg/kg", "procedure": "Male SD rats weighing 300-350 g were fasted overnight prior to the experiment. The compounds to be tested were dissolved in 30% sulfobutyl ether-β-cyclodextrin (SBE-β-CD) and the rats were intragastric administration at 20 mg/kg. The blood was taken from the tails of the rats at 15 min, 30 min, and 1, 2, 3, 4, 6, 8 and 24 hours after administration, with about 0.3 ml of blood at each time point, and then the blood was placed in a centrifuge tube containing K2-EDTA, and centrifuged (2,000 g, 10 min, 4° C.) to take the plasma which was then stored in an ultra-low temperature freezer at −80° C. 50 μL, of plasma sample was mixed with 5 μL of internal standard (IS) and extracted with ethyl acetate. The residue was redissolved in acetonitrile after vacuum drying. The sample was filtered and injected into LC-MS/MS for analysis to determine the concentration of the compounds to be tested.\nIn the table: Tmax refers to the peak time, Cmax refers to the maximum plasma drug concentration, T1/2 is the half-life, AUClast refers to the area under the 0-24 hour time-concentration curve, AUCinf refers to the area under the 0-Inf time-concentration curve."}}, "note": "Read-outs that look alike come from different tables or passages of the source."}
{"compound": "CC(=O)c1c(C)c2cnc(Nc3ccc(C4CCN(CCS(C)(=O)=O)CC4)cn3)nc2n(C2CCCC2)c1=O", "note": "[Compound 1, 6-acetyl-8-cyclopentyl-5-methyl-2-((5-(1-(2-(methylsulfonyl)ethyl)piperidin-4-yl)pyridin-2-yl)amino)pyrido[2,3-d]pyrimidin-7(8H)-one]", "values": [{"measurement": "IC50", "setting": "[1]", "value": "10 to 50", "unit": "nM"}, {"measurement": "IC50", "setting": "ZR-75-1", "value": "100 to 500", "unit": "nM"}, {"measurement": "IC50", "setting": "[2]; read-out: IC50 (nM) G1 arrest", "value": 41.7, "unit": "nM"}, {"measurement": "IC50", "setting": "[2]; read-out: IC50 (nM) S decrease", "value": 46.1, "unit": "nM"}, {"measurement": "phosphorylation of Rb at Ser780 site", "setting": "[3]", "value": "effectively reduce"}, {"measurement": "Cmax", "setting": "[4]", "value": 1450, "unit": "ng/mL"}, {"measurement": "Tmax", "setting": "[4]", "value": 1.5, "unit": "h"}, {"measurement": "half-life", "setting": "[4]", "value": 90, "unit": "min"}, {"measurement": "AUC(0-t)", "setting": "[4]; 0-24 hour", "value": 4400, "unit": "ng·h/mL"}, {"measurement": "AUC(0-inf)", "setting": "[4]; 0-Inf", "value": 4540, "unit": "ng·h/mL"}]}
